Test systems include DLD-1 colon; A498 renal; SNB-78 CNS; HCC-2998 colon; DMS 114 small cell lung; LXFL 529 NSCLC; KM20L2 colon; M19-MEL melanoma; RXF-631 renal; DMS 273 small cell lung; XF 498 CNS; OVCAR-4 ovarian; SN12K1 renal; HOP-18 NSCLC; P388 leukemia.
Common to all, as to assay: NCI tumour cell line growth inhibition, 48 h

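Five concentrations, 48 hours, 96-well plates. TGI is the concentration that stops growth completely.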

`CCCC/C=C1\CCC(CN2CCCC2)C1=O` (stereo unspecified): the TGI in the assay on DLD-1 colon was 12.8 µM; with A498 renal it was 28.2 µM; with SNB-78 CNS, 57.2 µM; in the assay on HCC-2998 colon, 33.7 µM; in the assay with DMS 114 small cell lung, 31.8 µM; with LXFL 529 NSCLC, 3.21 µM. For the same molecule, the TGI stood at 28.7 µM with KM20L2 colon; 33.5 µM with M19-MEL melanoma; 32.4 µM in the assay with RXF-631 renal; 34.3 µM in the assay with DMS 273 small cell lung; 29.6 µM in the assay on XF 498 CNS.

As for `NC(=O)c1ncn(C2OC(CO)C(O)C2O)c1NC(=S)NC(=O)c1ccccc1` (stereo unspecified), the TGI in the assay on DLD-1 colon, with A498 renal, in the assay with SNB-78 CNS, in the assay on HCC-2998 colon, in the assay on OVCAR-4 ovarian and in the assay with DMS 114 small cell lung was above 100 µM throughout. The TGI in the assay with LXFL 529 NSCLC, with KM20L2 colon, in the assay on M19-MEL melanoma and with DMS 273 small cell lung was above 100 µM in each case.

As for `O=C(/C=C/CC(O)(c1ccccc1)c1ccccc1)Nc1ccccc1Cl`, the TGI in the assay on DLD-1 colon, with A498 renal, in the assay with HCC-2998 colon, in the assay on OVCAR-4 ovarian, with DMS 114 small cell lung and with LXFL 529 NSCLC was above 100 µM each time. Further, the TGI in the assay on KM20L2 colon and in the assay on M19-MEL melanoma was above 100 µM in each case.

For the molecule `O=C1CN(c2ccccc2)C(=O)C1C(=O)Nc1ccc(Cl)c(Cl)c1` (stereo unspecified), the TGI in the assay with DLD-1 colon is 23 µM; with OVCAR-4 ovarian, 24.5 µM; with DMS 114 small cell lung, 13.3 µM; in the assay with LXFL 529 NSCLC, 14.3 µM; with KM20L2 colon it was 16.8 µM; in the assay on M19-MEL melanoma it was 14.8 µM. Also, the TGI is 14.3 µM in the assay on RXF-631 renal and 15.1 µM with DMS 273 small cell lung.

For `O=c1ccn([C@@H]2C=C(CO)[C@@H](O)[C@H]2O)c(=O)[nH]1`, the TGI with DLD-1 colon, with SN12K1 renal, in the assay on HOP-18 NSCLC, in the assay on P388 leukemia, in the assay on HCC-2998 colon and in the assay with OVCAR-4 ovarian was above 625 µM in each case. In addition, the TGI in the assay with KM20L2 colon is above 625 µM; in the assay on DMS 273 small cell lung, above 625 µM; with XF 498 CNS it was below 0.0625 µM.

For the origin of these results see PubChem BioAssay (NCI).
